Source: ChEMBL document CHEMBL5365457, “Selective HDAC3 Inhibitors with Potent In Vivo Antitumor Efficacy against Triple-Negative Breast Cancer” (J Med Chem, 2023)
Activity calls are given as the source filed them. The calls are words filed in the database; no cut-off is given here.

Columns and labels:
Histone deacetylase 1 = Histone deacetylase 1 (Homo sapiens, UniProt Q13547); experiment: Inhibition of full length N-terminal human recombinant HDAC1 at 1 uM incubated for 30 mins by fluorescence based microplate assay relative to control
Histone deacetylase 1, sequence (Q13547 whole entry): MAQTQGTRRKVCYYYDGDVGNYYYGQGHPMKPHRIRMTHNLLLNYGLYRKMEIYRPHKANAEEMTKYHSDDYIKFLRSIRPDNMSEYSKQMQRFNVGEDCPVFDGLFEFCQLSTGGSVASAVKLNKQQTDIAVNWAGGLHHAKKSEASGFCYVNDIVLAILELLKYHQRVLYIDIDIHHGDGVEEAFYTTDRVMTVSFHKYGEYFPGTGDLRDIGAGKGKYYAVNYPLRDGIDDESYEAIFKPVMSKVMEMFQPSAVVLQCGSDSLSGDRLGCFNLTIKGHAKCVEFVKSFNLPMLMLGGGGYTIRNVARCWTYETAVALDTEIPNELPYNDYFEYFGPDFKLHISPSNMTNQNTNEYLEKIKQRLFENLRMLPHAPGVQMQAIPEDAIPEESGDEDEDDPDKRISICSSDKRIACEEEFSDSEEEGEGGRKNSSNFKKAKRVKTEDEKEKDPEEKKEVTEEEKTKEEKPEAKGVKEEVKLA

[1] = Cytotoxicity against human MCF-10A cells assessed as inhibition of cell growth incubated for 72 hrs by MTT assay; type: toxicity, cell-based
[2] = Half life in Wistar rat at 15 mg/kg, ip measured upto 24 hrs by HPLC analysis; type: ADME, organism-based; settings: in vivo
[3] = Apparent volume of distribution in Wistar rat at 5 mg/kg, ip measured upto 24 hrs by HPLC analysis; type: ADME, organism-based; settings: in vivo
[4] = AUMC (0 to infinity) in Wistar rat at 15 mg/kg, ip measured upto 24 hrs by HPLC analysis; type: ADME, organism-based; settings: in vivo
Histone deacetylase 5 = Histone deacetylase 5 (Homo sapiens, UniProt Q9UQL6); experiment: Inhibition of recombinant HDAC5 (unknown origin) incubated for 30 mins by fluorescence based microplate analysis
Histone deacetylase 5, sequence (Q9UQL6 whole entry): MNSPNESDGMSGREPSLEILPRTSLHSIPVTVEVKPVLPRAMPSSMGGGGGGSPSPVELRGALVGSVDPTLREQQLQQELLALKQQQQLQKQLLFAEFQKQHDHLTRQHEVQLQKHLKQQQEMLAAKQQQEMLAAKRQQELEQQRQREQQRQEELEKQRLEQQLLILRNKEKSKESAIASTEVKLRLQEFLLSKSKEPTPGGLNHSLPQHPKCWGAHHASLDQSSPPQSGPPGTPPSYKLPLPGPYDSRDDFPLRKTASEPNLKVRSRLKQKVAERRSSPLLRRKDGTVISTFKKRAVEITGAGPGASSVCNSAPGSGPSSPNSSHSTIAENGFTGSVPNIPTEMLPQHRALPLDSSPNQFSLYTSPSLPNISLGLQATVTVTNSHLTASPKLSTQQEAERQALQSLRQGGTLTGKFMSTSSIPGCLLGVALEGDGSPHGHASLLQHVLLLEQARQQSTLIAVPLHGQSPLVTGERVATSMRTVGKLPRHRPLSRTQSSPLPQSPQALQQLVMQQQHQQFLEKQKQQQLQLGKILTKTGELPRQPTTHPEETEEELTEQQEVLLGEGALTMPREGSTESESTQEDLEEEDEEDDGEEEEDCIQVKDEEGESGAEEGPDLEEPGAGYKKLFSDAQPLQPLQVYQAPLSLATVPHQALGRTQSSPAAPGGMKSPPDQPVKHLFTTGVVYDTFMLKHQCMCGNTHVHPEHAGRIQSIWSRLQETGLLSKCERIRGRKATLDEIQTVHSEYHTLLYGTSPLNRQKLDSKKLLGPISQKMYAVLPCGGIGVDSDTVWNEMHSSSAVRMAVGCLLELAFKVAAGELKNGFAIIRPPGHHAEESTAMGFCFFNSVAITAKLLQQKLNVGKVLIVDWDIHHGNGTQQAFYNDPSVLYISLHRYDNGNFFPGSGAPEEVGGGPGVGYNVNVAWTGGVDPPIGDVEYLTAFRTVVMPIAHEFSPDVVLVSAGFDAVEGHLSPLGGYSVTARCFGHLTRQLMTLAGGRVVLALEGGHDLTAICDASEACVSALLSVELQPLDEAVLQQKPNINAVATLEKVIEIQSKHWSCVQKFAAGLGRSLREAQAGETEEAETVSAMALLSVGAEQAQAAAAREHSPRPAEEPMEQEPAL

[5] = target: T1, Protein deacetylase HDAC6 (Homo sapiens, UniProt Q9UBN7); experiment: Inhibition of human recombinant HDAC6 incubated for 10 mins by fluorescence based microplate analysis
T1 sequence (Q9UBN7 whole entry): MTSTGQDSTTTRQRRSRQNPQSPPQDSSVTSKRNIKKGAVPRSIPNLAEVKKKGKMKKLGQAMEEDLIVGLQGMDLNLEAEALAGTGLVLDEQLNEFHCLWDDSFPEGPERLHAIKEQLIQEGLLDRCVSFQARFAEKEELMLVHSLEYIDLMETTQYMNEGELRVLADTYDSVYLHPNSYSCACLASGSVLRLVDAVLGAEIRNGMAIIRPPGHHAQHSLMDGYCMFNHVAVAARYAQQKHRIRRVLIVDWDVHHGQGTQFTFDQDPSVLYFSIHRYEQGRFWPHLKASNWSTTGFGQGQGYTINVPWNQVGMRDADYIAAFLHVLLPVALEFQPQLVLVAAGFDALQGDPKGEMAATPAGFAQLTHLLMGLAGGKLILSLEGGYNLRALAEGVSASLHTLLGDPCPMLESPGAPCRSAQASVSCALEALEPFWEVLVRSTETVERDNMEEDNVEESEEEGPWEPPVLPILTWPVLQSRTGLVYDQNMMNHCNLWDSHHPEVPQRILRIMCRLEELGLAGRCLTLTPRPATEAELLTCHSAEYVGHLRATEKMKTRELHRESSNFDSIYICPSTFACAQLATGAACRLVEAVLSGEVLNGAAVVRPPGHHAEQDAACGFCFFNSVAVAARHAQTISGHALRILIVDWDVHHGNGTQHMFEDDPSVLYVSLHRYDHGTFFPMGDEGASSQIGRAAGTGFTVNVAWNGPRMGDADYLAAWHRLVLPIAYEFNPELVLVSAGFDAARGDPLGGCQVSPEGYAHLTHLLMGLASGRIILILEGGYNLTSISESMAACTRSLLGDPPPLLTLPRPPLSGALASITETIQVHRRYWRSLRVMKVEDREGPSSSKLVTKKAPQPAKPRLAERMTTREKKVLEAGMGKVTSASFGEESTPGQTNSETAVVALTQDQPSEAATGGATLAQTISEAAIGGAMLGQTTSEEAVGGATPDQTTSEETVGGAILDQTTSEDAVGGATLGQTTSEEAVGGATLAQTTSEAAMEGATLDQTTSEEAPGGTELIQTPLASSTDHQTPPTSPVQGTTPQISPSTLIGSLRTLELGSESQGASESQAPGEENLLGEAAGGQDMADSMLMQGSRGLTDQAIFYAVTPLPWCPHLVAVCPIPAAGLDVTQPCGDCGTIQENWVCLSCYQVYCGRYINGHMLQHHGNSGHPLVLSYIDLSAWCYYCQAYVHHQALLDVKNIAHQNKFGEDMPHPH

[6] = Selectivity ratio of IC50 for cytotoxicity against human MCF-10A cells assessed as inhibition of cell growth to IC50 for cytotoxicity against human MDA-MB-453 cells assessed as inhibition of cell growth; type: toxicity, cell-based; settings: MCF-10A cells versus MDA-MB-453 cells, read-out: Ratio IC50
[7] = Selectivity ratio of IC50 for cytotoxicity against human HCEC cells assessed as inhibition of cell growth to IC50 for cytotoxicity against mouse 4T1 cells assessed as inhibition of cell growth; type: toxicity, cell-based; settings: HCEC cells versus 4T1 cells, read-out: Ratio IC50
4T1 [8] = experiment: Induction of apoptosis in mouse 4T1 cells at 550 nM incubated for 72 hrs by annexin/PI staining based flow cytometry analysis (reference value: 1.35%); type: functional
4T1 [9] = experiment: Induction of apoptosis in mouse 4T1 cells assessed as cell shrinkage incubated for 72 hrs by acridine orange staining based analysis; type: functional
MDA-MB-231 = experiment: Cytotoxicity against wild type human MDA-MB-231 cells assessed as reduction in cell viability incubated for 72 hrs by MTT assay; type: functional, cell-based; settings: MDA-MB-231, 72 h
4T1 [10] = experiment: Antitumor activity against mouse 4T1 cells implanted in BALB/c mouse assessed as reduction in tumor volume at 5 mg/kg, ip administered 5 times a week for 21 days (reference value: 52.05+/-13.23 mm3); type: functional; settings: time 21 day
4T1 [11] = experiment: Antitumor activity against mouse 4T1 cells implanted in BALB/c mouse assessed as reduction in tumor weight at 15 mg/kg, ip administered 5 times a week for 21 days; type: functional; settings: time 21 day
4T1 [12] = experiment: Antitumor activity against mouse 4T1 cells implanted in BALB/c mouse assessed as tumor growth inhibition at 5 mg/kg, ip measured on day 14; type: functional; settings: 4T1, 336 h, time 14 day, read-out: TGI
4T1 [13] = experiment: Antitumor activity against mouse 4T1 cells implanted in BALB/c mouse assessed as tumor growth inhibition at 5 mg/kg, ip measured on day 21; type: functional; settings: 4T1, 504 h, time 21 day, read-out: TGI
[14] = Toxicity in BALB/c mouse implanted with mouse 4T1 cells assessed as heart damage at 5 to 15 mg/kg, ip measured after 21 days by H and E staining based assay; type: organism-based; settings: in vivo, 504 h, dose 5-15 mg/kg, time 21 day
[15] = Toxicity in BALB/c mouse implanted with mouse 4T1 cells assessed as effect on cell size in kidney at 5 to 15 mg/kg, ip measured after 21 days by H and E staining based assay; type: organism-based; settings: in vivo, 504 h, dose 5-15 mg/kg, time 21 day
[16] = Toxicity in BALB/c mouse implanted with mouse 4T1 cells assessed as kidney fibrosis at 5 to 15 mg/kg, ip measured after 21 days; type: organism-based; settings: in vivo, 504 h, dose 5-15 mg/kg, time 21 day
[17] = Toxicity in BALB/c mouse implanted with mouse 4T1 cells assessed as spleen fibrosis at 5 to 15 mg/kg, ip measured after 21 days; type: organism-based; settings: in vivo, 504 h, dose 5-15 mg/kg, time 21 day
4T1 [18] = experiment: In-vivo inhibition of HDAC3 in ip dosed BALB/c mouse implanted with mouse 4T1 cells assessed as hyperacetylation of H4K12 level by Western blot analysis; type: functional, organism-based; settings: dose 5-15 mg/kg
4T1 [19] = experiment: Antitumor activity against mouse 4T1 cells implanted in BALB/c mouse assessed as upregulation of cytochrome c level in tumor at 5 to 15 mg/kg, ip by Western blot analysis; type: functional, organism-based; settings: dose 5-15 mg/kg
4T1 [20] = experiment: Antitumor activity against mouse 4T1 cells implanted in BALB/c mouse assessed as reduction in Ki-67 protein level in tumor at 5 to 15 mg/kg, ip by Western blot analysis; type: functional, organism-based; settings: dose 5-15 mg/kg

For `CCCNNC(=O)c1cnc(NCc2ccc(OC)cc2)cn1`, the inhibition (Histone deacetylase 1) was < 17%, the IC50 at 72 h [1] was 212 µM and the half-life [2] was 7.2 h. The Vz/F [3] was 7.01 (mg/kg)/(ug/ml), the AUMC [4] was 114.5 ug/ml.hr^2 and the IC50 (Histone deacetylase 5) was > 20 µM. For the same molecule, the IC50 [5] was 25.9 µM, the selectivity ratio [6] was 385 and the selectivity ratio [7] was 286. For the same molecule, the Activity (4T1 [8]) was 63.4%, the Activity (4T1 [9]) was “Active” and the IC50 (MDA-MB-231) was 0.743 µM. The Activity (4T1 [10]) was 185.23 mm3, the Activity (4T1 [11]) was 1.78 g and the inhibition in vivo at 5 mg/kg (4T1 [12]) was 91.2%. The inhibition in vivo at 5 mg/kg (4T1 [13]) was 92.9%, the Activity [14] was “Non-Toxic” and the Activity [15] was “Non-Toxic”. The Activity [16] was “Non-Toxic”, the Activity [17] was “Non-Toxic” and the inhibition (4T1 [18]) was “Dose-Dependent Effect”. The Activity (4T1 [19]) was “Active” and the Activity (4T1 [20]) was “Active”.
